The source of these data is article PMC3919114, “Induction of Apoptosis of 2,4′,6-Trihydroxybenzophenone in HT-29 Colon Carcinoma Cell Line” (BioMed Research International, 2014).

The test system of series [1] is human esophageal cancer cells (TE-2). Particulars: cited from earlier work.
On the set-up of series [2]: method as in earlier work. Particulars: from ethyl acetate extract of the leaves; cited from earlier work.
The subject of another series is Bcl-2. Briefly: Western blot analysis, Bcl-2 expression in HT-29 cells. Particulars: IC50 concentration (115 μM), 72 h treatment only. It is filed as cell-based, human. The method, then:
(§1) The HT-29 cells were cultured in […] tissue culture flasks and incubated at 37°C under 5% CO2 until confluent. […] After incubation at the various times, the cells were detached with accutase in PBS, washed thoroughly with PBS twice, and were then lysed with protein lysis buffer (Sigma, USA) containingprotease inhibitors and shaken by hand for 15 min at room temperature. The lysates were then centrifuged at 13,000 ×g for 20 min at 4°C and the supernatant was collected for protein samples and kept at […] until SDS page analysis. Protein concentration was determined using a BCA (bicinchoninic acid) protein assay kit (Invitrogen, USA) with bovine serum albumin as the standard.
(§2) The proteins were transferred into polyvinylidene difluoride (PVDF) membranes by semidry transfer. Bands were visualized using the Western Max Horseradish Peroxidase Chromogenic Detection Kit protocol (AMRESCO, USA). Briefly, the membranes were blocked in a blocking buffer for 30 min at room temperature. Primary antibodies for Bcl-2, Bcl-xL, PUMA, Mcl-1, Bak, Bad, and Bax were then added. The membranes were incubated with gentle agitation at room temperature overnight. After incubation, the membranes were washed with washing buffer two times and then incubated with Western Max HRP Conjugated Anti-Rabbit Antibody for 45 min at room temperature with gentle agitation. […]
(In western blotting, separated proteins are transferred to a membrane and probed.)

Another series relates to Bak. The series is described as follows: Western blot analysis, Bak expression in HT-29 cells. The class given is cell-based, human. Particulars: IC50 concentration (115 μM), 72 h treatment only. The method, then:
as §1, §2

For series [3], the system named is breast cancer cell line (MDA-MB231). Particulars: cited from earlier work.
The test system of the next series is PUMA. The series is described as follows: Western blot analysis, PUMA expression in HT-29 cells. It is filed as cell-based, human. Particulars: IC50 concentration (115 μM), 24 h, 48 h and 72 h. The method, then: as §1, §2
The subject of series [4] is HT-29 human colon carcinoma cell line. The series is described as follows: MTT cell proliferation assay, HT-29. The class given is cell-based. Particulars: read-out: IC50 against HT-29 cells. The method, then: (§3) The HT-29 human colon carcinoma cell line, WRL-68 normal liver cells, and MRC-5 normal lung fibroblast […] cells were purchased from the American Type Culture Collection (ATCC, USA). The cells were placed into tissue culture flasks and grown in a medium containing 10% fetal bovine serum, 100 μg/mL of penicillin/streptomycin, and 100 μg/mL of amphotericin B at 37°C in a humidified atmosphere containing 5% CO2.
(§4) The MTT […]) cell proliferation assay was based on the protocol described by Mosmann. Briefly, cells from a confluent tissue culture flask were spun at 1,000 rpm for five minutes and resuspended in 1.0 mL of growth medium. Cells were then seeded into 96 well plates and incubated in a CO2 incubator at 37°C for 24 hours to allow the cells to adhere and achieve 70%–80% confluence. After 24 hours, the media was removed and the test compound, at varying concentrations of 4, 38, 96, 192, and 384 μM with 200 μL of 10% medium, was added to the respective wells. For negative control, untreated cells were used. After 24 h, 48 h, and 72 h of incubation, respectively, each well had 10 μL of the MTT stock solution added to the test sample and was then incubated in a dark place for three hours. The medium with the MTT solution was removed and 200 μL of absolute DMSO was added to each well in order to solubilise the formazan crystals that had formed. The total amount of formazan crystals was examined by measuring the absorbance at 540 nm using an ELISA plate reader. The assay was carried out in triplicate.
(§5) The percentage of inhibition (%) was calculated using the following formula: (1) percentage of inhibition (%) =OD control−OD sample×100% /OD control, where OD = optical densities.
(§6) The IC50 value is the concentration of test compounds which cause 50% inhibition or cell death, average from three experiments, and was obtained by plotting the percentage of inhibition versus the concentration of test compounds [13].

Series [5] has as its system human normal fibroblast lung cells (MRC-5). Briefly: MTT cell proliferation assay, MRC-5. It is filed as cell-based. How it is done: as §3, §4, §5, §6
A general note: Formazan colour is commonly taken as a measure of viable cells.

In the next series the test system is Mcl-1. Briefly: Western blot analysis, Mcl-1 expression in HT-29 cells. It is filed as cell-based, human. Particulars: IC50 concentration (115 μM), 24 h, 48 h and 72 h. The method, then:
as §1, §2

A short description of series [6]: Annexin V-FITC/PI staining assay by flow cytometry. The class given is cell-based, human. Particulars: human, HT-29 cells, 24 h, read-out: viable cells (LL). The method, then: (§7) The quantification of cell death was determined by flow cytometry using the Annexin V-FITC apoptosis detection kit according to the manufacturer's instructions (BD Pharmingen, BD Bioscience, USA). Briefly, 1 × 10^6 of the HT-29 cells were seeded into each Petri dish (30 mm) and after a 24 h incubation, various concentrations of the test compound were added and incubated for 24 h, 48 h, and 72 h, respectively. The cells were then washed with PBS, suspended in annexin V binding buffer and then added to an annexin V-FITC solution and propidium iodide (PI) for 10 minutes at room temperature. The samples were then analyzed using FACScalibur (BD Bioscience, USA) using CellQuest Pro analysis software (Becton Dickinson, USA).
(§8) Cells were treated with various concentrations (96 μM, 192 μM, and 288 μM) of the compound for 24 h, 48 h, and 72 h, respectively. They were then harvested with accutase and phosphate buffer saline and centrifuged, after which they were stained with Annexin V-FITC and propidium iodide and analyzed in FACScalibur with CellQuest Pro software. The number of early apoptotic cells, late apoptotic cells, live cells, and necrotic cells was counted in every 10,000 cells of each treatment. All data was expressed as the mean ± SD (standard deviation). The standard deviation was calculated for the treated and untreated cells. The SPSS program (version 16.0) found a significant difference between the treated and untreated cells ([…]).
Background: A flow cytometer gives signals particle by particle.

The subject of series [7] is HT-29 cells. Briefly: Annexin V-FITC/PI staining assay by flow cytometry. The class given is cell-based, human. The method, then:
as §7, §8

Series [8] concerns HT-29 cells. Briefly: Morphological detection of apoptosis (inverted and phase-contrast microscopy). The class given is cell-based, human. Particulars: IC50 concentrations (115 μM), 24 h, 48 h, 72 h. How it is done: HT-29 cells were placed in a Petri dish (30 mm) at a density of 1 × 10^5 cells/well plate and grown for 24 h. […] After the various incubation periods, morphological changes in the apoptotic bodies of the HT-29 cells were examined by inverted and phase-contrast microscopy (Leica, Germany) and photographed.

Series [9] concerns human normal liver cells (WRL-68). Briefly: MTT cell proliferation assay, WRL-68. The class given is cell-based. The method, then: as §3, §4, §5, §6
Series [10] relates to HT-29 cells. Briefly: Cell cycle analysis by flow cytometry (PI staining). Particulars: IC50 value of 115 μM. It is filed as cell-based, human. The method, then: After incubation, the cells were collected by trypsinization, fixed in ethanol, washed in warm PBS, and incubated at −20°C, overnight. Next, the cells were washed with 1 mL of cold PBS and stained with propidium iodide according to the Cycle TEST PLUS DNA Reagent Kit (Becton Dickinson, USA) protocol. The cells were sorted in a FACScalibur flow cytometer (BD, USA) using CellQuest Pro software (Becton Dickinson, USA) and a quantitative analysis of the cell cycle distribution was performed using a trial version of the ModFit LT software, version 4.0.
The HT-29 cells were treated with isolated bioactive 2,4′,6-trihydroxy-4-methoxybenzophenone for 24 h, 48 h, and 72 h. Treated and untreated cells were harvested with accutase and phosphate buffer saline, centrifuged, and stained with propidium iodide. The HT-29 cells were then analyzed by flow cytometry using CellQuest Pro software and their distribution in different phases of the cell cycle is shown in Figure 6(a). The resulting data were tabulated using the trial version of the ModFit L.V 4.0 software to represent a percentage of each cell cycle phase (G0/G1, S, and G2/M), as shown in Figure 6(b).

Like-named read-outs stand apart in the source and are kept apart here.

As for `O=C(O)c1cc(O)c(O)c(O)c1` [Gallic acid], the “anticancer properties against TE-2 cells” value in [1] is given as “possess anticancer properties”.

Regarding `COc1cc(O)c(C(=O)c2ccc(O)cc2)c(O)c1` [2,4′,6-trihydroxy-4-methoxybenzophenone], the antioxidant activity result in [2] is reported as “good antioxidant activity”. In addition, in the series on Bcl-2, the “expression of Bcl-2” value is given as “only up-regulated for 72 h treatment”. Besides, the “expression of Bak” value in the series with Bak is recorded as “only up-regulated for 72 h treatment”. In addition, in [3], the “antiproliferation activity against MDA-MB231” value is “displayed antiproliferation activity”. The “expression of PUMA” value in the series with PUMA is “significantly upregulated”. Further, the IC50 – broadly, the concentration that inhibits the measured activity by half – is 172 ± 2.21 µM in [4] (24 h); 144 ± 2.66 µM in series [4] (48 h); 122 ± 1.69 µM in [4] (72 h); ≥ 384 µM in series [5] (MRC5, 24 h); 269 ± 0.96 µM in [5] (MRC5, 48 h); 356 ± 1.21 µM in series [5] (MRC5, 72 h). Also, the IC50 in series [9] (WRL68, 24 h) was ≥ 384 µM; in [9] (WRL68, 48 h) it was 331 ± 0.69 µM; in series [9] (WRL68, 72 h) it was 235 ± 1.03 µM. For the same compound, the “expression of Mcl-1” value with Mcl-1 is “significantly upregulated”. Further, the viability at 24 h, 96 µM in series [6] (96 μM) came to 69.3%. Further, the viability at 24 h, 192 µM in [6] (192 μM) stood at 35.2%. Besides, the viability at 24 h, 288 µM in series [6] (288 μM) was 23.8%. In addition, the “early apoptotic cells (LR)” value was 2.96% with HT-29 cells [7] (96 μM, 24 h); 10.87% with HT-29 cells [7] (96 μM, 48 h); 1.33% in the series on HT-29 cells [7] (96 μM, 72 h); 8.46% in the series with HT-29 cells [7] (192 μM, 24 h); 4.74% with HT-29 cells [7] (192 μM, 48 h); 14.34% in the series with HT-29 cells [7] (192 μM, 72 h). Moreover, the “early apoptotic cells (LR)” value is given as 6.71% with HT-29 cells [7] (288 μM, 24 h); 8.51% in the series with HT-29 cells [7] (288 μM, 48 h); 0.28% in the series on HT-29 cells [7] (288 μM, 72 h). In addition, the “late apoptotic cells (UR)” value in the series on HT-29 cells [7] (96 μM, 24 h) came to 12.28%; in the series on HT-29 cells [7] (96 μM, 48 h), 31.48%; with HT-29 cells [7] (192 μM, 24 h), 25.98%; with HT-29 cells [7] (288 μM, 24 h) it was 50.81%; in the series with HT-29 cells [7] (288 μM, 48 h), 54.67%. The “primary necrotic cells (UL)” value is 15.49% with HT-29 cells [7] (96 μM, 24 h); 8.04% in the series on HT-29 cells [7] (96 μM, 48 h); 30.69% in the series on HT-29 cells [7] (96 μM, 72 h); 30.40% in the series with HT-29 cells [7] (192 μM, 24 h); 35.05% with HT-29 cells [7] (192 μM, 48 h); 13.96% with HT-29 cells [7] (192 μM, 72 h). For the same compound, the “primary necrotic cells (UL)” value in the series with HT-29 cells [7] (288 μM, 24 h) came out at 19.63%; in the series on HT-29 cells [7] (288 μM, 48 h), 10.02%; in the series on HT-29 cells [7] (288 μM, 72 h) it was 36.63%. Moreover, the “late apoptotic or secondary necrotic cells (UR)” value with HT-29 cells [7] (96 μM, 72 h) turned out to be 15.77%; with HT-29 cells [7] (192 μM, 72 h), 58.97%; in the series on HT-29 cells [7] (288 μM, 72 h), 8.45%. The “live cells (LL)” value in the series with HT-29 cells [7] (96 μM, 72 h) came to 52.21%; in the series on HT-29 cells [7] (192 μM, 48 h), 34.22%; with HT-29 cells [7] (192 μM, 72 h), 12.73%; in the series on HT-29 cells [7] (288 μM, 48 h) it was 26.80%; in the series on HT-29 cells [7] (288 μM, 72 h) it was 54.64%. Also, the “morphological changes associated to apoptosis” value in the series on HT-29 cells [8] was “membrane blebbing, cell shrinkage, chromatin condensation, apoptotic nuclei, and DNA fragmentation”. Moreover, the “cell percentage in the G2/M phase” value with HT-29 cells [10] (24 h) turned out to be 13.61%; in the series with HT-29 cells [10] (48 h), 3.17%; with HT-29 cells [10] (72 h) it was 3.20%. Moreover, the “cell percentage in the S phase” value was 15.70% in the series with HT-29 cells [10] (24 h), 16.85% in the series on HT-29 cells [10] (48 h) and 8.60% in the series on HT-29 cells [10] (72 h). In addition, the “percentage of diploid cells in the G0/G1 phase” value is 70.69% with HT-29 cells [10] (24 h), 79.98% with HT-29 cells [10] (48 h) and 88.21% with HT-29 cells [10] (72 h). Moreover, the “effect on cell cycle” value in the series on HT-29 cells [10] (24 h, 48 h, 72 h, time-dependent) is reported as “cell cycle arrest in the G0/G1 phase”.

As for `COc1cc(O)c(C(=O)c2ccc(O)cc2)c(O[C@@H]2O[C@H](CO)[C@@H](O)[C@H](O)[C@H]2O)c1` [4′,6-dihydroxy-4-methoxybenzophenone 2-o-β-D-glucopyranoside], the “antiproliferation activity against MDA-MB231” value in [3] is given as “displayed antiproliferation activity”.
